# Measured values: PubChem BioAssay AID248 (DTP/NCI, 2004)
# “And” between values parts separate entries of the source, which are not always exact repeats. Equal values may be shown once. Toxic doses and inconclusive results are not listed.
# Test system: L1210 leukemia ip in BDF1 mice, survival T/C
# Test: NCI In Vivo Anticancer Drug Screen. Data for tumor model L1210 Leukemia (intraperitoneal) in B6D2F1 (BDF1) mice
# Conditions: endpoint: mean survival time, higher = longer survival
# Method in brief: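 Each compound was tested against a transplantable tumor grown in mice. The endpoint was survival, with treated animals benchmarked against vehicle controls as a simple ratio.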
# [1] = dose: 10.0 mg/kg/injection, schedule: Q01DX001 (ip), vehicle: saline
# [2] = dose: 20.0 mg/kg/injection, schedule: Q01DX001 (ip), vehicle: saline
# [3] = dose: 100.0 mg/kg/injection, schedule: Q01DX001 (ip), vehicle: saline
# [4] = dose: 200.0 mg/kg/injection, schedule: Q01DX001 (ip), vehicle: saline
# [5] = dose: 400.0 mg/kg/injection, schedule: Q01DX001 (ip), vehicle: saline
# [6] = dose: 100.0 mg/kg/injection, schedule: Q04DX002 (ip), vehicle: saline
# [7] = dose: 200.0 mg/kg/injection, schedule: Q04DX002 (ip), vehicle: saline
# [8] = dose: 400.0 mg/kg/injection, schedule: Q01DX009 (ip), vehicle: saline
# [9] = dose: 400.0 mg/kg/injection, schedule: Q04DX002 (ip), vehicle: saline
smiles,measurement,setting,value
CCCCCCCCCCCCCCC[n+]1ccc(C#N)cc1,T/C,"dose: 5.0 mg/kg/injection, schedule: Q01DX009 (ip), vehicle: acetone",101 % of control
same,T/C,[1],93 % of control
same,T/C,"dose: 10.0 mg/kg/injection, schedule: Q01DX009 (ip), vehicle: acetone",100 % of control
same,T/C,"dose: 10.0 mg/kg/injection, schedule: Q04DX003 (ip), vehicle: saline",101 % of control
same,T/C,[2],93 % of control
same,T/C,"dose: 20.0 mg/kg/injection, schedule: Q04DX003 (ip), vehicle: saline",94 % of control
same,T/C,"dose: 40.0 mg/kg/injection, schedule: Q01DX001 (ip), vehicle: saline",98 % of control
same,T/C,"dose: 40.0 mg/kg/injection, schedule: Q04DX003 (ip), vehicle: saline",92 % of control
CCN(CC)CCCNc1ccnc2cc(Cl)ccc12,T/C,[3],94 % of control
CC1=C/C(=N/NC(N)=O)CC(C)(C)C1,T/C,[3],93 % of control
same,T/C,[4],93 % of control
same,T/C,[5],98 % of control
CCCCP(=[Se])(CCCC)CCCC,T/C,"dose: 0.78 mg/kg/injection, schedule: Q01DX009 (ip), vehicle: Klucel (hydroxypropylcellulose) (HPC)",93 % of control
same,T/C,"dose: 1.56 mg/kg/injection, schedule: Q01DX009 (ip), vehicle: Klucel (hydroxypropylcellulose) (HPC)",97 % of control
same,T/C,"dose: 3.12 mg/kg/injection, schedule: Q01DX009 (ip), vehicle: Klucel (hydroxypropylcellulose) (HPC)",112 % of control
same,T/C,"dose: 6.25 mg/kg/injection, schedule: Q01DX009 (ip), vehicle: Klucel (hydroxypropylcellulose) (HPC)",104 % of control
OC(c1cccc2ccccc12)c1c2ccccc2cc2ccccc12 (stereo unspecified),T/C,"dose: 50.0 mg/kg/injection, schedule: Q01DX009 (ip), vehicle: saline",96 % of control
same,T/C,"dose: 100.0 mg/kg/injection, schedule: Q01DX005 (ip), vehicle: saline",98 % of control
same,T/C,"dose: 100.0 mg/kg/injection, schedule: Q01DX009 (ip), vehicle: saline",102 % of control and 104 % of control
same,T/C,[6],93 % of control
same,T/C,"dose: 200.0 mg/kg/injection, schedule: Q01DX005 (ip), vehicle: saline",103 % of control
same,T/C,"dose: 200.0 mg/kg/injection, schedule: Q01DX009 (ip), vehicle: saline",100 % of control
same,T/C,[7],97 % of control
same,T/C,"dose: 400.0 mg/kg/injection, schedule: Q01DX005 (ip), vehicle: saline",106 % of control
same,T/C,[8],108 % of control and 91 % of control
same,T/C,[9],97 % of control
N#Cc1cnc(SCc2ccccc2)nc1N,T/C,"dose: 100.0 mg/kg/injection, schedule: Q01DX001 (ip), vehicle: gum acacia",95 % of control
same,T/C,"dose: 100.0 mg/kg/injection, schedule: Q01DX009 (ip), vehicle: gum acacia",95 % of control
same,T/C,"dose: 200.0 mg/kg/injection, schedule: Q01DX001 (ip), vehicle: gum acacia",95 % of control
same,T/C,"dose: 200.0 mg/kg/injection, schedule: Q01DX009 (ip), vehicle: gum acacia",98 % of control
same,T/C,"dose: 400.0 mg/kg/injection, schedule: Q01DX001 (ip), vehicle: gum acacia",98 % of control
same,T/C,"dose: 400.0 mg/kg/injection, schedule: Q01DX009 (ip), vehicle: gum acacia",107 % of control
O=C1C2(c3ccccc3)CC(CBr)C1(c1ccccc1)C(c1ccccc1)=C2c1ccccc1 (stereo unspecified),T/C,"dose: 50.0 mg/kg/injection, schedule: Q01DX001 (ip), vehicle: carboxymethylcellulose (CMC)",97 % of control
same,T/C,"dose: 100.0 mg/kg/injection, schedule: Q01DX001 (ip), vehicle: carboxymethylcellulose (CMC)",100 % of control
same,T/C,"dose: 200.0 mg/kg/injection, schedule: Q01DX001 (ip), vehicle: carboxymethylcellulose (CMC)",97 % of control
same,T/C,"dose: 400.0 mg/kg/injection, schedule: Q01DX001 (ip), vehicle: carboxymethylcellulose (CMC)",97 % of control
CN(C)c1ccc(/C=N/NC(=O)c2ccccc2NC(=O)c2ccc(Cl)cc2)c(Cl)c1,T/C,"dose: 100.0 mg/kg/injection, schedule: Q01DX009 (ip), vehicle: Klucel (hydroxypropylcellulose) (HPC)",95 % of control
same,T/C,"dose: 200.0 mg/kg/injection, schedule: Q01DX009 (ip), vehicle: Klucel (hydroxypropylcellulose) (HPC)",90 % of control
same,T/C,"dose: 400.0 mg/kg/injection, schedule: Q01DX009 (ip), vehicle: Klucel (hydroxypropylcellulose) (HPC)",90 % of control
Cc1cccn2ncnc12,T/C,"dose: 50.0 mg/kg/injection, schedule: Q01DX001 (ip), vehicle: alcohol",106 % of control
same,T/C,"dose: 100.0 mg/kg/injection, schedule: Q01DX001 (ip), vehicle: alcohol",107 % of control
same,T/C,"dose: 200.0 mg/kg/injection, schedule: Q01DX001 (ip), vehicle: alcohol",102 % of control
Cc1nc(N)[nH]c(=O)c1CCCNc1ccc(/C=C/C(=O)CCl)cc1,T/C,"dose: 50.0 mg/kg/injection, schedule: Q01DX Z (ip), vehicle: carboxymethylcellulose (CMC)",90 % of control
same,T/C,"dose: 100.0 mg/kg/injection, schedule: Q01DX Z (ip), vehicle: carboxymethylcellulose (CMC)",86 % of control
same,T/C,"dose: 200.0 mg/kg/injection, schedule: Q01DX Z (ip), vehicle: carboxymethylcellulose (CMC)",90 % of control
same,T/C,"dose: 400.0 mg/kg/injection, schedule: Q01DX Z (ip), vehicle: carboxymethylcellulose (CMC)",90 % of control
CN(C)S(=O)(=O)c1ccc(NC(=O)OC(c2ccccc2)c2ccccc2)cc1,T/C,[3],91 % of control
same,T/C,[4],102 % of control
same,T/C,[5],91 % of control
O=c1[nH]cc(F)c(=O)n1C1OC(CO)C(O)C1O (stereo unspecified),T/C,"dose: 0.78 mg/kg/injection, schedule: Q01DX009 (ip), vehicle: saline",124 % of control
same,T/C,"dose: 1.5 mg/kg/injection, schedule: Q01DX009 (ip), vehicle: saline",159 % of control
same,T/C,"dose: 1.56 mg/kg/injection, schedule: Q01DX009 (ip), vehicle: saline",152 % of control
same,T/C,"dose: 3.12 mg/kg/injection, schedule: Q01DX005 (ip), vehicle: saline",167 % of control
same,T/C,"dose: 3.12 mg/kg/injection, schedule: Q01DX009 (ip), vehicle: saline",173 % of control
same,T/C,"dose: 6.0 mg/kg/injection, schedule: Q01DX009 (ip), vehicle: saline",97 % of control
same,T/C,"dose: 6.25 mg/kg/injection, schedule: Q01DX005 (ip), vehicle: saline",171 % of control
same,T/C,"dose: 6.25 mg/kg/injection, schedule: Q01DX009 (ip), vehicle: saline",204 % of control
same,T/C,"dose: 12.5 mg/kg/injection, schedule: Q01DX009 (ip), vehicle: saline",231 % of control
same,T/C,"dose: 18.8 mg/kg/injection, schedule: Q04DX003 (ip), vehicle: saline",107 % of control
same,T/C,"dose: 25.0 mg/kg/injection, schedule: Q01DX009 (ip), vehicle: saline",118 % of control
same,T/C,"dose: 25.0 mg/kg/injection, schedule: Q04DX003 (ip), vehicle: saline",105 % of control
same,T/C,"dose: 37.5 mg/kg/injection, schedule: Q04DX003 (ip), vehicle: saline",110 % of control
same,T/C,"dose: 50.0 mg/kg/injection, schedule: Q04DX003 (ip), vehicle: saline",110 % of control
same,T/C,"dose: 178.0 mg/kg/injection, schedule: Q01DX009 (ip), vehicle: saline",165 % of control
same,T/C,"dose: 267.0 mg/kg/injection, schedule: Q01DX009 (ip), vehicle: saline",163 % of control
same,T/C,[8],150 % of control
same,T/C,"dose: 600.0 mg/kg/injection, schedule: Q01DX009 (ip), vehicle: saline",171 % of control
CCOC=NC1=C(Cl)C(=O)C(N=COCC)=C(Cl)C1=O,T/C,"dose: 100.0 mg/kg/injection, schedule: Q04DX003 (ip), vehicle: Klucel (hydroxypropylcellulose) (HPC)",92 % of control
same,T/C,"dose: 200.0 mg/kg/injection, schedule: Q04DX003 (ip), vehicle: Klucel (hydroxypropylcellulose) (HPC)",94 % of control
O=C(O)C1CCC1(C(=O)O)C(=O)O (stereo unspecified),T/C,[6],94 % of control
same,T/C,[7],90 % of control
same,T/C,[9],94 % of control
C[N+](C)(C)C12CCC(CC1)C1([N+](C)(C)C)CCC2CC1,T/C,"dose: 100.0 mg/kg/injection, schedule: Q04DX002 (ip), vehicle: Klucel (hydroxypropylcellulose) (HPC)",109 % of control
same,T/C,"dose: 200.0 mg/kg/injection, schedule: Q04DX002 (ip), vehicle: Klucel (hydroxypropylcellulose) (HPC)",113 % of control
same,T/C,"dose: 400.0 mg/kg/injection, schedule: Q04DX002 (ip), vehicle: Klucel (hydroxypropylcellulose) (HPC)",117 % of control
CCNc1nnnn1-c1ccccc1,T/C,[3],97 % of control
same,T/C,[4],101 % of control
Cc1nc(C#N)c(N)o1,T/C,"dose: 5.0 mg/kg/injection, schedule: Q01DX001 (ip), vehicle: saline",103 % of control
same,T/C,[1],103 % of control
same,T/C,[2],98 % of control
CC1CCCC(C)N1N (stereo unspecified),T/C,"dose: 100.0 mg/kg/injection, schedule: Q01DX001 (ip), vehicle: saline with Tween-80",97 % of control
same,T/C,"dose: 200.0 mg/kg/injection, schedule: Q01DX001 (ip), vehicle: saline with Tween-80",93 % of control
same,T/C,"dose: 400.0 mg/kg/injection, schedule: Q01DX001 (ip), vehicle: saline with Tween-80",95 % of control
COc1ccccc1OC(=O)Nc1ccc(S(=O)(=O)NC2CCCCC2)cc1,T/C,[3],100 % of control
same,T/C,[4],91 % of control
same,T/C,[5],94 % of control
